Tests used:
R441A MtPMT = format: cell-based, M. tuberculosis

c1c[nH]cn1 [imidazole]
restored FasC mannosylation, level of the wild type MtPMT (R441A MtPMT): ~ 25 ± 5%

Cl.N=C(N)N [guanidine chloride, guanidine hydrochloride]
restored FasC mannosylation, level of the wild type MtPMT (R441A MtPMT): ~ 25 ± 5%

[N-]=[N+]=[N-].[Na+] [sodium azide]
chemical complementation of inactive D74A mutant (D74A MtPMT): ineffective
chemical complementation of inactive D176A mutant (D176A MtPMT): ineffective

CC(=O)[O-].[Na+] [sodium acetate]
chemical complementation of inactive D74A mutant (D74A MtPMT): ineffective
chemical complementation of inactive D176A mutant (D176A MtPMT): ineffective

Source: article PMC12331936, “Structural Insights into the Protein Mannosyltransferase from Mycobacterium tuberculosis reveal a WW-Domain-Like Protein Motif in Bacteria” (Communications Biology, 2025)
